# Like-named read-outs stand apart in the source and are kept apart here.
# Assays:
# [1] = Ex vivo biodistribution in normal mice; set-up: species or system mice (Rj:NMRI-Foxn1 nu/nu); settings: i.v., control conditions
# Protocol: For biodistribution studies in normal mice, [^18F]7b (0.57 ± 0.03 MBq corresponding to 27 ± 1 pmol in 0.2 mL 0.9% NaCl with a maximum of 10% ethanol (v/v)) was injected i.v. into nude mice (Rj:NMRI-Foxn1 nu/nu, Janvier Laboratories, Le Genest-Saint-Isle, France, body weight 27.7 ± 3.4 g) without (control conditions) or with co-injection of ketoconazole (3 mg/animal). A stock solution of ketoconazole (141 mM) was prepared in ethanol/Tween-80 (1:1, v/v) by shaking over night at 45 °C. This solution was diluted with 0.9% NaCl (1:4, v/v) prior injection. The animals were sacrificed at 5 and 60 min p.i. by CO2 inhalation and cervical dislocation. Organs and tissues of interest were excised, weighed, and radioactivity was determined using the Wizard™3’’ gamma counter. Activity in selected organs and tissues was expressed as % injected dose per weight (% ID/g) or % injected dose (% ID).
# [2] = Stability in blood in vitro; assay type: in vitro ADME; settings: incubation of the radiotracer in blood in vitro
# [3] = set-up: method as in Wodtke et al. [2021]; settings: in vitro; ref Wodtke et al. [2021]; cited from earlier work
# [4] = system: A375-hS100A4 tumor xenograft (TGase 2 +); experiment: Ex vivo biodistribution in tumor-bearing mice (A375-hS100A4); set-up: species or system mice (Rj:NMRI-Foxn1 nu/nu)
# Protocol: For biodistribution studies in tumor-bearing mice, a number of 5 × 10^6 A375-hS100A4 or MeWo cells were resuspended in 100 µL PBS and injected subcutaneously into nude mice (Rj:NMRI-Foxn1 nu/nu). Tumor growth was monitored three times per week using caliper measurements. The injection of [^18F]7b and subsequent steps were performed as described above.
# Liver microsome assay = assay type: in vitro ADME, murine; settings: for CLint scaled: read-out: predicted intrinsic clearance (pred. CLint); for half-life: t1/2 approach (at 3-4 µM), 1 mg/mL MLM, 2 mM NADPH
# Protocol: Microsome experiments with [^18F]7b in the presence of NADPH were performed according to the procedure recently described by us with slight modifications (Lemm et al. [2022]). […] [^18F]7b dissolved in 0.5% ethanol/PBS (100 µL; 0.2% ethanol final, e.g. 108 MBq/mL or 4.1 µM final) was mixed with PBS (112.5 µL) and murine liver microsomes (MLM, 12.5 µL of 20 mg/mL stock; 1 mg/mL final; Gibco™ Cat. No. MSMCPL, Lot. No. MS053-A) in a 1.5 mL Eppendorf tube and the mixture was warmed for 5 min at 37 °C. Subsequently, NADPH (25 µL of freshly prepared 20 mM solution in PBS, 2 mM final) was added and the mixture was incubated at 37 °C. As a control incubation, the NADPH solution was replaced by PBS. At distinct time points (5, 10, 15, 30, and 60 min), an aliquot (40 µL) was withdrawn and added to ice-cold CH3CN (160 µL). The mixture was vortexed for 30 s, stored on ice for 4 min and centrifuged (5 min at 16,100 × g). The resulting supernatant was used for radio-HPLC and radio-TLC analyses. For radio-HPLC, the Shimadzu Nexera X2 UHPLC system described above including the conditions for analysis was used. Radio-TLC was carried out on reversed-phase TLC plates (ALUGRAM RP-18W/UV254 from Macherey–Nagel, Düren, Germany) with a mobile phase of 40% CH3CN in water containing 0.1% trifluoroacetic acid. Visualization of radioactive spots and subsequent analysis was conducted as described above.
# Testosterone (40 µM final) was used as positive control for the activity of the MLM and was separately treated and analyzed after incubation times of 5, 10, 15, 30, and 60 min as described above (0% ethanol final; HPLC gradient profile: 45% eluent B for 10 min followed by washing of the column with 45% to 95% eluent B in 1 min, 95% eluent B for 5 min, 95% to 45% eluent B in 1 min, 45% eluent B for 8 min; total time of 25 min).
# For that, solutions of [^18F]7b in 0.5% ethanol/PBS (10 µL; 0.1% ethanol final, 17 MBq/mL or 1.14 µM final) were mixed with the respective tenfold concentrated solutions of 7b dissolved in 10% DMSO/PBS (5 µL, 1% DMSO final and 5/10/20/40/80 µM of 7b final), PBS (27.5 µL) and murine liver microsomes (2.5 µL of 20 mg/mL stock) in a 1.5 mL Eppendorf tube and the mixture was warmed for 5 min at 37 °C. Subsequently, NADPH (5 µL of freshly prepared 20 mM solution in PBS, 2 mM final) was added and the mixture was incubated at 37 °C. At distinct time points (5, 10, 15, 20, and 30 min), an aliquot (5 µL) was withdrawn and added to ice-cold CH3CN (40 µL). The subsequent steps were performed as described above including analysis by radio-TLC.
# For the t1/2 approach at n.c.a. level, the obtained fractions of intact [^18F]7b (by radio-HPLC or radio-TLC analysis) were plotted against the time. Nonlinear regression was performed by one-phase decay (equation 1) as implemented in GraphPad Prism (GraphPad Prism 9.5.1.733), which provided the t1/2 values. The fraction at X = 0 min, Y0, was constrained to 1.0.1 Y0=Y0-Plateau×e^-k×X+Plateau
# Subsequently, the intrinsic clearance, CLint (mL*min^−1*kg^−1), was calculated using equation 2 (Obach et al. [1997]; Schneider et al. [2019])2 CLint=ln2/t1/2min×fuinc×1/MLM(mg/mL)×microsomalprotein/liverweightmg/g×liverweight/bodyweightg/kg with the scaling factors of 60.1 mg/g (microsomal protein/liver weight for rats as no value for mice could be found) (Carlile et al. [1997]) and 87.5 g/kg (liver weight/body weight for mice) (Davies and Morris [1993]). The concentration of the MLMs was 1 mg/mL.
# For the Vmax/Km approach, the obtained fractions of intact [^18F]7b (by radio-TLC analysis) were plotted against the time (fraction plot). The concentration plot was obtained by transformation of the fractions into concentrations of 7b by taking the experimentally determined molar activity of [^18F]7b into account (i.e. final concentration of 1.14, 6.16, 11.14, 21.14, 41.14, and 81.14 µM for 7b in the performed experiments). Both plots were analyzed by nonlinear regression according to one-phase decay (equation 1). […]
smiles,measurement,setting,value
C=CC(=O)NCCCCC(NC(=O)Cc1ccccc1)C(=O)N1CCN(c2cccc([18F])n2)CC1 (stereo not shown) [[^18F]7b],activity uptake kidneys,[1]; 5 min p.i.,7.9 %ID/g
same,activity uptake liver,[1]; 5 min p.i.,15.7 %ID/g
same,activity uptake femur,[1]; 60 min p.i.,3.9 %ID/g
same,injected activity in intestinal content,[1]; 60 min p.i.,50 %ID
same,injected activity in urine,[1]; 60 min p.i.,19 %ID
same,[^18F]7b remaining intact,[2],≥ 90%
same,GSH reactivity,[3],low
same,tumor/muscle ratio,[4],1.4
same,fraction of intact [^18F]7b,"Liver microsome assay; MLM, after 30 min in the absence of NADPH, radio-TLC",0.984
same,Vmax,"Liver microsome assay; Michaelis–Menten analysis, degradation by MLM (1 mg/mL)",0.37 µM/min
same,Vmax,"Liver microsome assay; Vmax/Km approach, substrate depletion, radio-TLC",0.37 µM*mL*min^-1*mg^-1
same,CLint scaled,"Liver microsome assay; mouse, liver microsomes, Vmax/Km approach, mice",1610 mL/min/kg
same,half-life,"Liver microsome assay; mouse, liver microsomes, radio-HPLC",5.7 min
same,half-life,"Liver microsome assay; mouse, liver microsomes, radio-TLC",7.2 min
same,CLint scaled,"Liver microsome assay; mouse, liver microsomes, t1/2 approach",772 mL/min/kg
same,Km,"Liver microsome assay; mouse, liver microsomes, Vmax/Km approach, degradation by MLM, radio-TLC",1.5 µM
